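Interpolation was linear, between the two tested concentrations surrounding the appropriate level; five concentrations were tested over 48 hours in 96-well plates. The concentration for 50% growth inhibition is given as GI50. TGI marks complete inhibition of growth.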
Assays:
Assay in all cases: NCI tumour cell line growth inhibition, 48 h
786-0 renal = tested on: 786-0 renal
A498 renal = tested on: A498 renal
A549 NSCLC = tested on: A549 NSCLC
ACHN renal = tested on: ACHN renal
BT-549 breast = tested on: BT-549 breast
CAKI-1 renal = tested on: CAKI-1 renal
CCRF-CEM leukemia = tested on: CCRF-CEM leukemia
COLO 205 colon = tested on: COLO 205 colon
DU-145 prostate = tested on: DU-145 prostate
EKVX NSCLC = tested on: EKVX NSCLC
HCC-2998 colon = tested on: HCC-2998 colon
HCT-116 colon = tested on: HCT-116 colon
HCT-15 colon = tested on: HCT-15 colon
HL-60(TB) leukemia = tested on: HL-60(TB) leukemia
HOP-62 NSCLC = tested on: HOP-62 NSCLC
HOP-92 NSCLC = tested on: HOP-92 NSCLC
HS 578T breast = tested on: HS 578T breast
HT29 colon = tested on: HT29 colon
IGROV1 ovarian = tested on: IGROV1 ovarian
K-562 leukemia = tested on: K-562 leukemia
KM12 colon = tested on: KM12 colon
LOX IMVI melanoma = tested on: LOX IMVI melanoma
M14 melanoma = tested on: M14 melanoma
MALME-3M melanoma = tested on: MALME-3M melanoma
MCF7 breast = tested on: MCF7 breast
MDA-MB-231 breast = tested on: MDA-MB-231 breast
MDA-MB-435 = tested on: MDA-MB-435
MOLT-4 leukemia = tested on: MOLT-4 leukemia
NCI-H226 lung = tested on: NCI-H226 lung
NCI-H23 lung = tested on: NCI-H23 lung

`COc1ccc(C(=O)c2cc(OC)c(OC)c(OC)c2)cc1OC(=O)C(Cl)(Cl)Cl` was tested, and the GI50 (786-0 renal) was 587 nM, the TGI (786-0 renal) was > 100000 nM and the GI50 (A498 renal) was 1970 nM. The TGI (A498 renal) was 7180 nM, the GI50 (A549 NSCLC) was 154 nM and the TGI (A549 NSCLC) was > 100000 nM. The GI50 (ACHN renal) was 32.9 nM, the TGI (ACHN renal) was > 100000 nM and the GI50 (BT-549 breast) was 11.8 nM. The TGI (BT-549 breast) was 880 nM, the GI50 (CAKI-1 renal) was 140 nM and the TGI (CAKI-1 renal) was > 100000 nM. For the same molecule, the GI50 (CCRF-CEM leukemia) was < 18.3 nM, the TGI (CCRF-CEM leukemia) was > 100000 nM and the GI50 (COLO 205 colon) was 1310 nM. For the same molecule, the TGI (COLO 205 colon) was 23200 nM, the GI50 (DU-145 prostate) was 28.4 nM and the TGI (DU-145 prostate) was > 100000 nM. For the same molecule, the GI50 (EKVX NSCLC) was 3160 nM, the TGI (EKVX NSCLC) was > 100000 nM and the GI50 (HCC-2998 colon) was 46.2 nM. For the same molecule, the TGI (HCC-2998 colon) was > 100000 nM, the GI50 (HCT-116 colon) was 28.4 nM and the TGI (HCT-116 colon) was > 100000 nM. The GI50 (HCT-15 colon) was < 10 nM, the TGI (HCT-15 colon) was > 100000 nM and the GI50 (HL-60(TB) leukemia) was < 10 nM. For the same molecule, the TGI (HL-60(TB) leukemia) was < 19.1 nM, the GI50 (HOP-62 NSCLC) was 83 nM and the TGI (HOP-62 NSCLC) was > 100000 nM. The GI50 (HOP-92 NSCLC) was 470 nM, the TGI (HOP-92 NSCLC) was > 100000 nM and the GI50 (HS 578T breast) was 18 nM. For the same molecule, the TGI (HS 578T breast) was > 100000 nM, the GI50 (HT29 colon) was 2000 nM and the TGI (HT29 colon) was > 100000 nM. For the same molecule, the GI50 (IGROV1 ovarian) was 312 nM, the TGI (IGROV1 ovarian) was > 100000 nM and the GI50 (K-562 leukemia) was < 10 nM. For the same molecule, the TGI (K-562 leukemia) was > 100000 nM, the GI50 (KM12 colon) was < 10 nM and the TGI (KM12 colon) was > 100000 nM. The GI50 (LOX IMVI melanoma) was < 13.4 nM, the TGI (LOX IMVI melanoma) was > 100000 nM and the GI50 (M14 melanoma) was < 10 nM. For the same molecule, the TGI (M14 melanoma) was > 100000 nM, the TGI (MALME-3M melanoma) was > 100000 nM and the GI50 (MCF7 breast) was 27.2 nM. The TGI (MCF7 breast) was > 100000 nM, the GI50 (MDA-MB-231 breast) was 158 nM and the TGI (MDA-MB-231 breast) was > 100000 nM. For the same molecule, the GI50 (MDA-MB-435) was < 10 nM, the GI50 (MOLT-4 leukemia) was < 19.9 nM and the TGI (MOLT-4 leukemia) was > 50200 nM. The GI50 (NCI-H226 lung) was 15400 nM, the TGI (NCI-H226 lung) was > 100000 nM and the GI50 (NCI-H23 lung) was 62.7 nM.

Reference: PubChem BioAssay (NCI)
